Here are results for 4 compounds from US5912224A, “Methods and compositions for enhancing cellular response to TGF-β ligands” (priority 1997, dated 1999).

Series [1] concerns FKBP12 (T7 tagged) binding to TGF-β type I receptor (R4). Kind of series: R4/FKBP12 co-immunoprecipitation competition in transfected COS cells. The format is cell-based. The settings on record: for block of R4/FKBP12 co-immunoprecipitation: 100 nM derivative, COS cells transfected with R4 and T7 tagged FKBP12. As to the method:
For testing FKBP12 binding to ligand-free TGF-β type I receptor (either wild type or mutants) by co-immunoprecipitations, COS1 cells grown in P-100 dishes were transfected with 4 μg of T7 tagged FKBP12 in pCMV8 and 6 μg of R4 (or mutant R4) in pCMV6 using the DEAE-dextran method. In the case of using metabolic labeling to detect co-precipitation of FKBP12 and R4, 40-44 hours after transfection COS1 cells were incubated for 4 hours with 50 μCi/ml [^35 S]-methionine in methionine-free media and lysed in lysis buffer (20 mM Tris-HCl [pH 7.4], 150 mM NaCl, 0.5% Triton X-100, 1 mM EDTA) in the presence of a mixture of protease inhibitors. Anti-T7 monoclonal antibody (5 μl) was added into 200 μl of cell lysates, incubated at 4° C. for 2 hours, absorbed with protein A sepharose beads, and washed three times with wash buffer (20 mM Tris-HCl [pH 7.4], 150 mM NaCl, 0.1% Triton X-100, 1 mM EDTA). Proteins were eluted from the sepharose beads using 2× SDS-PAGE denaturing sample buffer, separated on 15% SDS-PAGE. The gel was treated with Autofluor (National Diagnostic), dried and subjected to autoradiography for 48 hours. In the case of using Western blot to detect co-precipitated T7 tagged FKBP12, cell lysates were immunoprecipitated with 10 μl of VPN antiserum, which recognizes a juxtamembrane region of the TGF-β type I receptor (Franzen, P. et al., Cell 75:681-692 (1993)). The immunoprecipitates were separated on 15% SDS-PAGE, electrotransferred onto nitrocellulose membrane, blotted using anti-T7 monoclonal antibody, and detected by ECL (Amersham).
For testing the effect of non-functional FK506 derivatives (L685,818 from Merck Laboratories and 15-O-desmethyl-FK520 from Sandoz) on FKBP12 binding to R4, 2 hours after transfection COS1 cells were treated with the derivatives for […] and then labeled for 4 hours with 50 μCi/ml [^35 S]-methionine in methionine-free media 40-44 hours after transfection. Cells were then lysed and immunoprecipitation was carried out as described above. […]

For another series, the system named is Mullerian duct. Kind of series: Urogenital ridge organ culture assay (MIS-mediated Mullerian duct regression). Details: species or system rat. On the procedure: The organ culture assay was carried out as described previously (Donahoe, P. K. et al., J. Surg. Res. 23:141-148 (1977)). Briefly, urogenital ridges containing Wolffian and Mullerian ducts from 14.5 day female rat fetuses were maintained in CMRL media with 10% fetal calf serum, 100 units/ml penicillin, and 100 μg/ml streptomycin. To test the effect of the non-functional derivatives of FK506 (L685,818 or 15-O-desmethyl FK520) on Mullerian duct regression, the specimens were treated with the indicated doses of MIS in the presence or absence of the non-functional derivatives of FK506 and incubated at 37° C. in 5% CO2 and 95% air. After 72 hours, the specimens were fixed in formalin, dehydrated in an alcohol series, cleared in xylene, embedded in paraffin, cut in serial cross sections, stained with hematoxylin and eosin and graded for regression of the Mullerian duct as described (Donahoe, P. K. et al., J. Surg. Res. 23:141-148 (1977)).
Since FKBP12 binds to all known type I receptors, its inhibitory activity should therefore also be detected in the signaling events mediated by other TGF-β family members. Mullerian Inhibiting Substance (MIS) is a unique member of the TGF-β family known to be responsible for regression of the Mullerian duct in fetal males through an active apoptotic process (Jost, A., Arch. Anat. Micro. Morph. Exp. 36:271-315 (1947); Price, J. M. et al., Am. J. Anat. 149:353-376 (1977); Trelstad, R. L. et al., Devl. Bio. 92:27-40 (1982)). The activity of MIS in the regression of the Mullerian ducts can be measured directly in an organ culture assay (Donahoe, P. K. et al., J. Surg. Res. 23:141-148 (1977)). In this assay, urogenital ridges containing both the Wolffian duct and the Mullerian duct are isolated from fourteen and a half day female fetuses. […] When 1 μg MIS was added into the organ culture, grade 1.5 regression was observed, which histologically corresponds to a condensation of the mesenchymal cells surrounding a smaller and irregularly shaped Mullerian duct (FIG. 5, A, top panel). […] We further tested the effect of 1 μM 15-O-desmethyl-FK520 on the regression activities of different doses of MIS (FIG. 5, B).

The target in another series is FKBP12 (Homo sapiens, UniProt P62942). The settings on record: cited from earlier work.
For series [2] the following is noted: in vivo; cited from earlier work.
The subject of series [3] is Mv1Lu cells. As to the kind of experiment: Transcriptional response assay (p3TP-lux luciferase reporter). It is filed as cell-based, mink. An excerpt: Two TGF-β responsive mink lung epithelial cell lines Mv1Lu and L17, the latter being a highly transfectable clone of R1B lacking the functional type I receptor of TGF-β, were used in a transcriptional response employing a DEAE-dextran method (Bassing, C. et al., Science 263:87-89 (1994); Wrana, J. L. et al., Nature 370:341-47 (1994)). Briefly, cells grown to 50% confluency in 6-well plates were transiently transfected with the transcriptional response reporter construct p3TP-lux alone or together with different constructs of the type I receptor. Sixteen to twenty hours after transfection, cells were treated with TGF-β in 0.2% serum medium for 24 to 28 hours. For testing the effect of FK506 derivative 15-O-desmethyl FK520, cells were treated with the drug beginning two hours prior to the addition of TGF-β. Cell lysates were made and luciferase activity was measured in a luminometer. Each assay was carried out in duplicate or triplicate.
To distinguish between these possibilities, both 15-O-desmethyl-FK520 and L685,818 were used to test the role of FKBP12 in the signaling events mediated by TGF-β, and yielded very similar results; here we report the results from using 15-O-desmethyl-FK520. […]
(A reporter such as luciferase makes a cellular process visible.)

In series [4] the test system is Mv1Lu cells. Kind of series: Growth inhibition assay. The settings on record: for growth inhibition, macrolide alone: each alone, added to Mv1Lu cells. The format is cell-based, mink. As to the method: Growth Inhibition Assay Mv1Lu cells were seeded in 12-well plate at 3×10^4 cells/well and incubated overnight. Cells were treated with 15-O-demethyl FK520 for 2 hours and with TGF-β for 36 to 40 hours in the presence of the drug. Cells were trypsinized, and cell numbers were determined in a Coulter counter.
To distinguish between these possibilities, both 15-O-desmethyl-FK520 and L685,818 were used to test the role of FKBP12 in the signaling events mediated by TGF-β, and yielded very similar results; here we report the results from using 15-O-desmethyl-FK520. In the absence of 15-O-desmethyl-FK520, TGF-β elicits two cellular responses when added into the mink lung epithelial cell line Mv1Lu: the growth inhibition response, which can be detected by a decrease in cell number, and the gene activation response, which can be measured by an increase in the luciferase activities resulting from the activation of a transfected luciferase reporter gene regulated by a Plasminogen Activator Inhibitor (PAI) promotor (Wrana, J. L. et al., Cell 71:1003-1014 (1992)). […] Therefore, FKBP12 binding to the TGF-β type I receptor is not necessary, but is inhibitory to the type I receptor mediated signaling, and release of FKBP12 is not sufficient for complete activation of the downstream signaling events in the absence of TGF-β.

Series [5] deals with T1, FKBP12 binding to R4C (cytoplasmic domain of TGF-β type I receptor) (Rattus norvegicus, UniProt Q62658).
T1 construct: host or cells: yeast (two-hybrid)
The settings on record: excess macrolide, yeast cells; cited from earlier work.

The subject of series [6] is FKBP12 mutant D37G (mFKBP12). The settings on record: point mutation within the macrolide binding site; cited from earlier work.
Series [7] has as its target FKBP12 mutant (G89P, 190K) (Homo sapiens, UniProt P62942, G90P/I91K). The settings on record: mutations within the 80s loop; cited from earlier work.
The mark [8] stands for this setting: macrolide up to 1 μM together with TGF-β 15 pM.

Chain of FKBP12 (P62942 whole entry): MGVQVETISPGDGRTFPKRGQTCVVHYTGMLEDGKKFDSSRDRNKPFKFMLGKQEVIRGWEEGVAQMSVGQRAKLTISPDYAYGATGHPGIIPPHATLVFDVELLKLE
T1 sequence (Q62658 whole entry, the tested form may be a part): as the sequence (P62942 whole entry) above, with P10S, M50T, T76I counted along it
Chain of FKBP12 mutant (G89P, 190K) (P62942 2-108 G90P/I91K limits assumed): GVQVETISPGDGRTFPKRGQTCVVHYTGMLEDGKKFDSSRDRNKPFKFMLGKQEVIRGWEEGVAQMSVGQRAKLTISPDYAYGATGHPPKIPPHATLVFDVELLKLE

On to `CC[C@@H]1/C=C(\C)C(O)[C@H](C)C[C@H](OC)[C@H]2O[C@@](O)(C(=O)C(=O)N3CCCC[C@H]3C(=O)O[C@H](/C(C)=C/[C@@H]3CC[C@@H](O)[C@H](OC)C3)[C@H](C)[C@@H](O)CC1=O)[C@H](C)C[C@@H]2OC` (stereo partly drawn) [L685,818], for which the “block of R4 interaction with FKBP12” value in series [1] (50 nM, COS cells, FIG. 4A lane 3) is recorded as “block R4 interaction with FKBP12”. Further, the “block of R4/FKBP12 co-immunoprecipitation” value in [1] is “able to block R4/FKBP12 co-immunoprecipitation”. Further, in the series with Mullerian duct (500 nM macrolide alone), the “Mullerian duct regression grade” value was determined as 1 Grade. Further, the Mullerian duct regression result in the series with Mullerian duct (500 nM macrolide together with 2 μg MIS) is recorded as “complete regression”. In addition, the “affinity for FKBP12” value on FKBP12 is “binds with high affinity”. For the same compound, the “toxicity in animal models” value in series [2] is reported as “do not induce toxicity”.

On to `CC[C@@H]1/C=C(\C)C[C@H](C)C[C@H](O)[C@H]2O[C@@](O)(C(=O)C(=O)N3CCCC[C@H]3C(=O)O[C@H](/C(C)=C/[C@@H]3CC[C@@H](O)[C@H](OC)C3)[C@H](C)[C@@H](O)CC1=O)[C@H](C)C[C@@H]2OC` [15-O-desmethyl-FK520], for which the “block of R4/FKBP12 co-immunoprecipitation” value in series [1] is listed as “able to block R4/FKBP12 co-immunoprecipitation”. In the series with Mullerian duct (1 μM macrolide alone, no MIS), the Mullerian duct regression entry is recorded as “no regression activity was detected”. Also, the “Mullerian duct regression grade (0 no regression to 5 complete regression)” value in the series with Mullerian duct (1 μM macrolide together with 1 μg MIS) came to 5 grade. Further, the “regression activity of 0.1 μg MIS in presence of macrolide” value with Mullerian duct (1 μM macrolide with 0.1 μg MIS, compared with 1 μg MIS alone) is “more biological activity than 1 μg MIS alone”. Besides, in the series with Mv1Lu cells [3] (1 μM alone, no TGF-β), the “gene activation response, macrolide alone” value is given as “Neither of the responses were detected”. For the same compound, in the series with Mv1Lu cells [3] (setting [8]), the “TGF-β gene activation response (luciferase activity)” value is “greatly enhanced”. The “growth inhibition response, macrolide alone” value with Mv1Lu cells [4] (1 μM alone, no TGF-β) is “Neither of the responses were detected”. Besides, the “TGF-β growth inhibition response (decrease in cell number)” value with Mv1Lu cells [4] (setting [8]) is “greatly enhanced”. The “affinity for FKBP12” value at FKBP12 is “binds with high affinity”. In [2], the “toxicity in animal models” value was “do not induce toxicity”.

With `C=CC[C@@H]1/C=C(\C)C[C@H](C)C[C@H](OC)[C@H]2O[C@@](O)(C(=O)C(=O)N3CCCC[C@H]3C(=O)O[C@H](/C(C)=C/[C@@H]3CC[C@@H](O)[C@H](OC)C3)[C@H](C)[C@@H](O)CC1=O)[C@H](C)C[C@@H]2OC` [FK506], the “growth inhibition, macrolide alone” value in the series on Mv1Lu cells [4] was “exhibited growth inhibition activities”. Moreover, the “affinity for FKBP12” value on FKBP12 is “bind strongly”. Besides, the “competition for binding of R4C to FKBP12” value in series [5] is recorded as “could partially compete”. Besides, the “binding to FKBP12 D37G” value in series [6] is given as “abolishes FKBP12 binding”. Also, in series [7], the “binding to FKBP12 (G89P, 190K)” value is listed as “without affecting”.

Take `CO[C@H]1C[C@@H]2CC[C@@H](C)[C@@](O)(O2)C(=O)C(=O)N2CCCC[C@H]2C(=O)O[C@H]([C@H](C)C[C@@H]2CC[C@@H](O)[C@H](OC)C2)CC(=O)[C@H](C)/C=C(\C)[C@@H](O)[C@@H](OC)C(=O)[C@H](C)C[C@H](C)/C=C/C=C/C=C/1C` [rapamycin]: the “growth inhibition, macrolide alone” value with Mv1Lu cells [4] is recorded as “exhibited growth inhibition activities”. Also, at FKBP12, the “affinity for FKBP12” value is listed as “bind strongly”. Further, in [6], the “binding to FKBP12 D37G” value is reported as “abolishes FKBP12 binding”.
